{
  "source": "patent US11235001B2",
  "about": "“RUNX inhibitor” (KYOTO UNIVERSITY, priority 2016, dated 2022)",
  "key": {"[1]": {"assay": "Acute toxicological testing in NOG mice", "assay_type": "in vivo, mouse", "description": "To check the pharmacological safety of the PI polyamide conjugates in vivo, acute toxicological testing of Chb-M′ in mice was first performed. NOD/Shi-scid,IL-2RγKO (NOG) mice were injected with Chb-M′ at various concentrations. Complete blood cell counts, blood biochemistry and body weight were measured (n=5)."}, "SU/SR cells [2]": {"system": "SU/SR cells", "assay": "Xenograft ALL mouse model (SU/SR)", "assay_type": "in vivo"}, "MKN45 cells": {"system": "MKN45 cells", "assay": "Xenograft gastric cancer mouse model (MKN45)", "assay_type": "in vivo"}, "[3]": {"system": "c-kit, phospho-c-Kit, AKT, phosphorylated AKT, Mitf", "assay": "Western blot of KIT signalling, LAD2 mast cells", "assay_type": "cell-based, human", "conditions": "LAD2, 10 μM, 18 hours", "description": "(§1) Cells were washed twice with ice cold phosphate-buffered saline (PBS) and harvested in protein lysis buffer [50 mM Tris (pH 7.4), 100 mM NaCl, 0.1 mM EDTA, 1 mM phenylmethylsulfonyl fluoride, 1 mM β-glycerophosphate, 2.5 mM sodium pyrophosphate, 1 mM Na3VO4, lx protease inhibitor (Roche) and PhosSTOP (Roche)]. Whole cell extracts were separated by SDS-polyacrylamide gel electrophoresis (SDS-PAGE) and electrotransferred onto polyvinylidene difluoride membranes. Membranes were probed with the following antibodies: anti-Ctip1 antibody (Abcam, ab19487), anti-TRIM24 antibody (Bethyl Laboratories, Inc), anti-RUNX1 antibody (A-2), anti-GAPDH (FL-335), anti-p21 (C-19), anti-Bax (N-20) antibodies (Santa Cruz Biotechnology, Inc.), anti-RUNX2, anti-RUNX3, anti-p53 antibodies (Cell Signaling Technology), anti-CBFβ antibody (FL-182, Santa Cruz Biotechnology, Inc.), anti-cleaved caspase-3 antibody (5A1E, Cell Signaling Technology), anti-PARP antibody (46D11, Cell Signaling Technology). For secondary antibodies, anti-rabbit IgG, or anti-mosue IgG HRP-linked antibodies (Cell Signaling Technology) were used. Blots were detected using Chemi-Lumi One Super (nacalai tesque, Inc.) and ChemiDoc™ XRS+ Imager (Bio-Rad Laboratories, Inc.), as recommended by the manufacturers. Protein levels were quantified with Image Lab Software (Bio-Rad Laboratories, Inc.).\nTo the LAD2 cell line and the HMC-1.2 cell line, 10 μM Chb-M′ was administered. After culturing the cells for 18 hours, extracts were obtained from the cells, and the protein expression levels of c-kit, phospho-c-Kit, AKT, phosphorylated AKT, Mitf, and GAPDH were analyzed by the Western blot analysis (see the above-described “Immunoblotting”) using different antibodies. AKT is an important signaling protein downstream of c-kit. Mitf is a representative transcriptional driver for c-kit. As a control, DMSO was administered. In the figure, “KIT” indicates c-kit, “pKIT” indicates phosphorylated c-kit, and “pAKT” indicates phosphorylated AKT. As primary antibodies, an anti-c-Kit antibody (Ab81, manufactured by Cell Signaling Technology), an anti-phospho-c-Kit (Tyr719) antibody (manufactured by Cell Signaling Technology), an anti-Akt antibody (manufactured by Cell Signaling Technology), an anti-phospho-Akt antibody (Ser473) (manufactured by Cell Signaling Technology), an anti-Mitf antibody (manufactured by Cosmo Bio), and an anti-GAPDH antibody (0411, manufactured by Santa Cruz Biotechnology, Inc.) were used. As secondary antibodies, an ECL™ anti-mouse IgG horseradish peroxidase-linked whole antibody (manufactured by GE Healthcare) and an ECL™ anti-rabbit IgG linked whole antibody (manufactured by GE Healthcare) were used."}, "[4]": {"system": "c-kit, phospho-c-Kit, AKT, phosphorylated AKT, Mitf", "assay": "Western blot of KIT signalling, HMC-1.2 mast cells", "assay_type": "cell-based, human", "conditions": "HMC-1.2, 10 μM, 18 hours", "description": "Cells were washed twice with ice cold phosphate-buffered saline (PBS) and harvested in protein lysis buffer [50 mM Tris (pH 7.4), 100 mM NaCl, 0.1 mM EDTA, 1 mM phenylmethylsulfonyl fluoride, 1 mM β-glycerophosphate, 2.5 mM sodium pyrophosphate, 1 mM Na3VO4, lx protease inhibitor (Roche) and PhosSTOP (Roche)]. Whole cell extracts were separated by SDS-polyacrylamide gel electrophoresis (SDS-PAGE) and electrotransferred onto polyvinylidene difluoride membranes. […] Blots were detected using Chemi-Lumi One Super (nacalai tesque, Inc.) and ChemiDoc™ XRS+ Imager (Bio-Rad Laboratories, Inc.), as recommended by the manufacturers. Protein levels were quantified with Image Lab Software (Bio-Rad Laboratories, Inc.).\nTo the LAD2 cell line and the HMC-1.2 cell line, 10 μM Chb-M′ was administered. After culturing the cells for 18 hours, extracts were obtained from the cells, and the protein expression levels of c-kit, phospho-c-Kit, AKT, phosphorylated AKT, Mitf, and GAPDH were analyzed by the Western blot analysis (see the above-described “Immunoblotting”) using different antibodies. […]"}, "ROR1 and ROR2": {"system": "ROR1 and ROR2", "assay": "Western blotting of ROR1 and ROR2 in DAOY", "assay_type": "cell-based, human", "conditions": "1 μM, 24 hours", "description": "as §1, with “For secondary antibodies, anti-rabbit IgG, or anti-mosue IgG HRP-linked antibodies (Cell Signaling Technology) were used.” left out\nTo DAOY cells, 1 μM Chb-M′ was administered. […] The expression of ROR1 was too weak to be detected."}, "Kasumi-1": {"system": "Kasumi-1", "conditions": "Kasumi-1, p53mut(+); for IC50: 48 hours"}, "THP-1": {"system": "THP-1", "conditions": "THP-1, p53mut(+); for IC50: 48 hours"}, "[5]": {"system": "p53-mutated colon cancer cell line HT29", "conditions": "HT29, 72 hours"}, "LNCaP cells": {"system": "LNCaP cells", "conditions": "read-out: IC50 (μM) in LNCaP cells; LNCaP (androgen-dependent), 48 hours"}, "SU/SR cells [6]": {"system": "SU/SR cells", "conditions": "read-out: IC50 value; SU/SR (imatinib-resistant), 48 hours"}, "[7]": {"conditions": "concomitant use of Chb-M′ and PRIMA-1, Chou-Talalay, CI<1 synergism"}, "[8]": {"conditions": "read-out: IC50 (μM) of Chb-M′ in concomitant use with PRIMA-1 (5 μM), with 5 μM PRIMA-1"}, "[9]": {"conditions": "read-out: IC50 (μM) of Chb-M′ single agent administration"}},
  "note": "Like-named read-outs stand apart in the source and are kept apart here.",
  "data": [
    {"smiles": "CN(C)CCCNC(=O)c1cc(NC(=O)c2cc(NC(=O)c3cc(NC(=O)c4cc(NC(=O)CCCNC(=O)c5nc(NC(=O)c6nc(NC(=O)c7cc(NC(=O)c8nc(NC(=O)CCNC(=O)CCCc9ccc(N(CCCl)CCCl)cc9)cn8C)cn7C)cn6C)cn5C)cn4C)cn3C)cn2C)cn1C", "note": "[Chb-M′]", "values": [
      {"measurement": "10 mg/kg dose relative to the amount necessary to gain medicinal effect", "setting": "[1]", "value": "more than thirty times higher"},
      {"measurement": "Tolerability in vivo", "setting": "[1]", "value": "highly tolerable"},
      {"measurement": "Platelets counts", "setting": "[1]; 10 mg/kg body weight injection", "value": "slight decrease"},
      {"measurement": "H&E staining of bone marrow", "setting": "SU/SR cells [2]; NOG mice with SU/SR", "value": "homogeneity was lost"},
      {"measurement": "Invasion of liver by transplanted PhALL cells (hCD45 staining)", "setting": "SU/SR cells [2]; NOG mice with SU/SR", "value": "reduced"},
      {"measurement": "Invasion of spleen by transplanted PhALL cells (hCD45 staining), compared with liver", "setting": "SU/SR cells [2]; NOG mice with SU/SR", "value": "same results"},
      {"measurement": "hCD45 staining of bone marrow (human leukemia cells)", "setting": "SU/SR cells [2]; NOG mice with SU/SR", "value": "most of the brown parts lost"},
      {"measurement": "Lengthening of overall survival periods", "setting": "SU/SR cells [2]; NOG mice with SU/SR (Ph+), 320 μg/kg IV twice a week", "value": "about 1.8 times"},
      {"measurement": "Tumor growth (tumor volume)", "setting": "MKN45 cells; MKN45 xenograft, 320 μg/kg IV twice a week, to day 35", "value": "almost no change in tumor size"},
      {"measurement": "Size of gastric cancer (IVIS)", "setting": "MKN45 cells; day 21 after transplantation, after total 4 administrations", "value": "decreased"},
      {"measurement": "Size of gastric cancer (IVIS)", "setting": "MKN45 cells; day 35 after transplantation, after total 8 administrations", "value": "slightly grew"},
      {"measurement": "Expression of c-kit protein", "setting": "[3]", "value": "suppressed"},
      {"measurement": "Level of phosphorylated AKT protein", "setting": "[3]", "value": "decreased"},
      {"measurement": "Protein expression level of Mitf", "setting": "[3]", "value": "not affected"},
      {"measurement": "Total amount of AKT", "setting": "[3]", "value": "not considerably changed"},
      {"measurement": "phospho-c-Kit protein", "setting": "[3]", "value": "suppressed"},
      {"measurement": "Expression levels of c-kit and phospho-c-Kit", "setting": "[4]", "value": "suppressed"},
      {"measurement": "pAKT amount of protein", "setting": "[4]", "value": "slight decrease"},
      {"measurement": "Expression of ROR2 at a protein level", "setting": "ROR1 and ROR2", "value": "suppressed"},
      {"measurement": "CI (Fa = 0.5)", "setting": "Kasumi-1; [7]", "value": 0.156},
      {"measurement": "IC50", "setting": "Kasumi-1; [8]", "value": 0.359, "unit": "µM"},
      {"measurement": "IC50", "setting": "Kasumi-1; [9]", "value": "> 100", "unit": "µM"},
      {"measurement": "CI (Fa = 0.5)", "setting": "THP-1; [7]", "value": 0.249},
      {"measurement": "IC50", "setting": "THP-1; [8]", "value": 0.5, "unit": "µM"},
      {"measurement": "IC50", "setting": "THP-1; [9]", "value": "> 100", "unit": "µM"},
      {"measurement": "CI (Fa = 0.5)", "setting": "MV4-11NR; p53mut(+), concomitant use of Chb-M′ and PRIMA-1, Chou-Talalay, CI<1 synergism", "value": 0.380},
      {"measurement": "IC50", "setting": "MV4-11NR; read-out: IC50 (μM) of Chb-M′ in concomitant use with PRIMA-1 (5 μM), p53mut(+), 48 hours, with 5 μM PRIMA-1", "value": 0.00103, "unit": "µM"},
      {"measurement": "IC50", "setting": "MV4-11NR; read-out: IC50 (μM) of Chb-M′ single agent administration, p53mut(+), 48 hours", "value": "> 100", "unit": "µM"},
      {"measurement": "IC50", "setting": "[5]", "value": 2.92, "unit": "µM"},
      {"measurement": "IC50", "setting": "LNCaP cells", "value": 0.68, "unit": "µM"},
      {"measurement": "IC50", "setting": "SU/SR cells [6]", "value": 0.044, "unit": "µM"}
    ]}
  ]
}
